According to patent US20230090255A1, “MAGL INHIBITOR, PREPARATION METHOD THEREFOR AND USE THEREOF” (LUNAN PHARMACEUTICAL GROUP CORPORATION, priority 2019, published 2023):
Counter-ions that a name gives are not always drawn.

Assays:
[1] = test system: mice tail suspension test; assay: Mice tail suspension test; type: in vivo, ICR mice; conditions: final 4 min of 6 min, 5 mg/kg intragastric once per day 10 d
Experimental: (§1) Male ICR mice having a body weight of 18-22 g. The animals were active on a schedule of normal illumination for 12 h and in the dark for 12 h. Environmental temperature and relative humidity were relatively kept for 22±1° C. and 55±5%.
(§2) There were 7 groups of laboratory mice, 10 pieces each group, set as a control group (normal saline), a positive control group (fluoxetine hydrochloride capsule, 5 mg/kg), 5 MAGLZ-II series of administration treatment groups: MAGLZ-II-06, MAGLZ-II-07, MAGLZ-II-11, MAGLZ-II-17 and MAGLZ-II-18, respectively, with an administration concentration of 5 mg/kg.
(§3) All medicaments were used once per day via intragastric administration with a dose of 20 mL/kg (body weight), lasting for 10 d. 1 h later after the final administration, the detection of animal behaviors was started.
The tail suspension test (TST) was performed by the method established by Porsolt, et al. (Porsolt R D, Le Pichon M, Jalfre M. Depression: a new animal model sensitive to antidepressant treatments[J]. Nature, 1977, 266(5604):730-732). Mice were respectively suspended on the tail portions with tail suspension clamps at a distance of 10 mm away from the tail portion of the box (250 mm×250 mm×300 mm) and a distance of 5 cm where the head of each mouse was away from the bottom portion. Noise was tested in a dark room having minimum background, and each mouse was suspended for 6 min, and an immobility time was recorded at intervals in the final 4 min. Judgment standard: the mice stopped struggling and kept still completely.
(§4) All data are shown by x̅±SD, and the comparison among groups is analyzed by one-way variance.

[2] = test system: mice forced swimming test; assay: Mice forced swimming test; type: in vivo, ICR mice; conditions: for Accumulated immobility time: forced swimming, 6 min, 5 mg/kg intragastric once per day 10 d, 1 h after final administration
Experimental: as §1, §2, §3
Mice forced swimming test was performed according to the method established by Porsolt (Porsolt R D. Behavioural despair in mice: A primary screening test for antidepressants[J]. Arch. Int. Pharmacolodyn. 1977, 229). […] Each mouse was judged as still when stopped struggling, kept suspension in water and only made necessary movement to keep the head above the water.
as §4

[3] = test system: reserpine-induced mice depression; assay: Reserpine-induced mice depression; type: in vivo, ICR mouse; design: Awakening / Finger contact / Head touch / Fear / Autonomic activity / Eyelid closure / Upright: scale not given here; conditions: for Eyelid closure: 2 h after reserpine 4 mg/kg
Experimental: • Species: ICR mouse • Microbiological level: SPF • Quantity and sex of the animals purchased: male: 75; female: 75 • Quantity and sex of the animals used: male: 75; female: 75 • Body weight: 13-18 g when accepted
Group design: there were 50 pieces for each batch of animals and 3 batches in total; each batch of animals were randomly divided into 5 groups; low, middle and high-dose groups of the samples for test, blank control group and model group; a sample for test was tested per batch.
3.1 Animals were administrated via subcutaneous injection per day with doses of 4, 8 and 16 mg/kg for 6 d in total. 2 h later after the final administration, each animal was subcutaneously injected with 4 mg/kg reserpine except the blank control group; afterwards, indicators, such as, awakening, finger contact, fear, head touch, autonomic activity, upright and eyelid closure were determined 2 h later.
Data statistics and analysis were completed via a computer by SPSS 17.0 software and office 2016, and data statistics was inspected by Kruskal-Wallis. If the Kruskal-Wallis inspection result is significant ((P<0.05), multiple comparison inspection is further performed by a Mann-Whitney U nonparametric test method.

[4] = Tissue distribution test in mice; type: in vivo; design: content in the brain (tissue distribution): unit not given here; conditions: 16 mg/kg subcutaneous injection
[5] = molecular target: T1, recombinant human protein MAGL (Homo sapiens, UniProt Q99685); assay: MAGL enzyme analysis (Cayman MAGL inhibitor screening kit); type: biochemical; conditions: 4-nitrophenylacetic acid substrate, absorbance 410 nm, read-out: MAGLXIC50
T1 construct: purchased Cayman
T1 sequence (Q99685 1-303): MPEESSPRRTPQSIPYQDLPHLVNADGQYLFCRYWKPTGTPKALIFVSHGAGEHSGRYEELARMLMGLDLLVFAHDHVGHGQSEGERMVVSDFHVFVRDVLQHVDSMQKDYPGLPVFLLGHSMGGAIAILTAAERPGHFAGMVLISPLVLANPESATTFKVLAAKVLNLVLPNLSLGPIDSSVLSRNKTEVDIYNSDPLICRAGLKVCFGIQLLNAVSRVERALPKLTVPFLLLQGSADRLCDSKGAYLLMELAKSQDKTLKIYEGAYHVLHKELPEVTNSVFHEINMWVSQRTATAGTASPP
Experimental: 150 µL 1Xassay buffer, 10 µL recombinant human protein MAGL and 10 µL different concentrations of MAGL inhibitors (six points within 1 nM to 1000 nM) were added to per well of a 96-well plate. JZL195 (a positive control inhibitor) served as a positive control well, after incubation for 5 min at room temperature, per well was added with 10 µL MAGL substrate, and […] were vibrated for 10 s and placed for 10 min at room temperature, then an absorbance was detected at 410 nm. […] Graphad Prism 5.0 was taken to calculate IC50 curves fitting each inhibitor.

With `CNCCC(Oc1ccc(C(F)(F)F)cc1)c1ccccc1` (stereo not drawn) [Fluoxetine hydrochloride capsule, Fluoxetine hydrochloride, reference compound] the Accumulated immobility time [1] was 92.19±23.63 S, the “accumulated immobility time of mice forced swimming test, in words” value ([2]; 5 mg/kg intragastric 10 d, P<0.05) was “obviously shorten” and the Accumulated immobility time [2] was 92.64±29.17 S.

With `O=C(Nc1cccc(O)c1)C1CCN(C(=O)c2ccc(Cl)cc2)CC1` [MAGLZ-II-06] the Accumulated immobility time [1] was 90.73±30.51 S and the Accumulated immobility time [2] was 89.23±46.37 S.

For `COc1cccc(C(=O)N2CCC(C(=O)Nc3ccc(Cl)cc3)CC2)c1` [MAGLZ-II-07], the Accumulated immobility time [1] was 89.66±31.52 S and the Accumulated immobility time [2] was 91.31±41.85 S.

For `O=C(Nc1cccc(Cl)c1)C1CCN(C(=O)c2ccc3ccccc3c2)CC1` [MAGLZ-II-17], the Accumulated immobility time [1] was 89.87±29.68 S, the “effect on reserpine-induced depression (conclusion)” value ([3]; 4, 8 and 16 mg/kg sc 6 d) was “may enhance the effect” and the Eyelid closure ([3]; high dose 16 mg/kg sc 6 d) was 0.25±0.66. The Eyelid closure ([3]; low dose 4 mg/kg sc 6 d) was 2.25±0.66, the Eyelid closure ([3]; middle dose 8 mg/kg sc 6 d) was 1±1.00 and the “content in the brain, ranking of the test substances” value [4] was “ranking the second”. For the same compound, the “content in the brain (tissue distribution)” value ([4]; 1.0 h) was 2.9, the “content in the brain (tissue distribution)” value ([4]; 2.0 h) was 9.4 and the “content in the brain (tissue distribution)” value ([4]; 5.0 h) was 4.8. It also gave an IC50 [5] of 15 nM and an Accumulated immobility time [2] of 79.38±41.67 S.
